Values of other authors as cited in patent US20080234335A1, “Cyclohexene Compounds” (priority 2003, published 2008).

Tests used:
EP1 receptor [1] = target: T1, EP1 receptor (Rattus norvegicus, UniProt P70597); set-up: host or cells: live rat (in vivo); details: rat model of chronic constriction injury
T1 sequence (P70597 1-405): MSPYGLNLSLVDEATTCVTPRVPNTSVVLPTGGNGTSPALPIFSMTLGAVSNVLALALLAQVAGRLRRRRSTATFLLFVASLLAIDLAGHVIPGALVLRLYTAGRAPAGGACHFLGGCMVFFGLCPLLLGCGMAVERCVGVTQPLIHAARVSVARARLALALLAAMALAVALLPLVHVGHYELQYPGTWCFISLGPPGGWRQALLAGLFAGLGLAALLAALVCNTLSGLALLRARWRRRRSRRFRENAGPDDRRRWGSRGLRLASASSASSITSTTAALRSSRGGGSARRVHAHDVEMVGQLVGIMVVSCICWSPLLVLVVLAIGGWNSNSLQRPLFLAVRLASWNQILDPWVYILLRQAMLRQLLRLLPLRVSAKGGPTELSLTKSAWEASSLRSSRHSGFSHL

EP1 receptor [2] = target: T1, EP1 receptor; set-up: host or cells: live rodent (in vivo); details: rodent model of post-operative pain

In the case of `Cc1cc(Cl)ccc1S(=O)(=O)NC[C@H]1C2CCC(CC2)[C@@H]1/C=C\CCCC(=O)O` [ONO-8711], the “effect on hyperalgesia and allodynia” value (EP1 receptor [1]) is listed as “reduces hyperalgesia and allodynia” and the “effect on mechanical hyperalgesia” value (EP1 receptor [2]) is listed as “inhibits mechanical hyperalgesia”.
